Results as given in KR20170021349A, “다양한 질병의 치료를 위한 jnk 신호 전달 경로의 세포 투과성 펩타이드 억제자의 새로운 용도” (자이겐 인플라메이션 리미티드, priority 2014, dated 2017).

What was measured:
Lewis rats = assay: Endotoxin-induced uveitis (EIU), duration of action after subconjunctival injection; format: in vivo, rat; conditions: 20 μg/eye
[1] = test system: Sprague-Dawley albino rats; assay: Light-induced photoreceptor damage (AMD model), ERG and ONL thickness; format: in vivo, rat
[2] = Immunostaining of liver 24 h after 1 mg/kg i.v.; format: in vivo, rat; conditions: Fig. 26
Brown Norway rats = assay: STZ diabetic retinopathy, repeated subconjunctival administration; format: in vivo, rat
[3] = test system: Hep G2 tumours in SWISS nude mice; assay: Orthotopic Hep G2 human liver carcinoma, 1 mg/kg; format: in vivo, mouse

For “NH2-DQSRPVQPFLNLTTPRKPRPPRRRQRRKKRG-COOH (H-DQSRPVQPFLNLTTPRKPRPPRRRQRRKKRG-OH; also: D-amino acids (positions not given here)) [XG-102]”, the “leukocytes in aqueous humor, median” value (Lewis rats; 1 day before induction) was 1540 세포/μL, the “reduction of clinical score” value (Lewis rats; 1 day before induction) was 60% and the “reduction of leukocyte infiltration” value (Lewis rats; 1 day before induction) was 48%. The “clinical score, mean ± SEM (n=20)” value (Lewis rats; 2 days before induction) was 1.8 ± 0.2, the “clinical score, median” value (Lewis rats; 2 days before induction) was 2.0 and the “leukocytes in aqueous humor, mean ± SEM (n=20)” value (shortened to “leukocytes … mean ± SEM (n=20)”) (Lewis rats; 2 days before induction) was 1844 ± 232 세포/μL. The “leukocytes in aqueous humor, median” value (Lewis rats; 2 days before induction) was 1500 세포/μL, the “reduction of clinical score” value (Lewis rats; 2 days before induction) was 55% and the “reduction of leukocyte infiltration” value (Lewis rats; 2 days before induction) was 43%. For the same substance, the “clinical score, mean ± SEM (n=20)” value (Lewis rats; 7 days before induction) was 3.3 ± 0.2, the “clinical score, median” value (Lewis rats; 7 days before induction) was 3.0 and the “leukocytes … mean ± SEM (n=20)” value (Lewis rats; 7 days before induction) was 2878 ± 331 세포/μL. The “leukocytes in aqueous humor, median” value (Lewis rats; 7 days before induction) was 2473 세포/μL, the “reduction of clinical score” value (Lewis rats; 7 days before induction) was 18% and the “reduction of leukocyte infiltration” value (Lewis rats; 7 days before induction) was 11%. The “clinical score, mean ± SEM (n=20)” value (Lewis rats; 14 days before induction) was 2.9 ± 0.2, the “clinical score, median” value (Lewis rats; 14 days before induction) was 3.0 and the “leukocytes … mean ± SEM (n=20)” value (Lewis rats; 14 days before induction) was 976 ± 143 세포/μL. The “leukocytes in aqueous humor, median” value (Lewis rats; 14 days before induction) was 648 세포/μL, the “reduction of clinical score” value (Lewis rats; 14 days before induction) was 28% and the “reduction of leukocyte infiltration” value (Lewis rats; 14 days before induction) was 70%. For the same substance, the “clinical score, mean ± SEM (n=20)” value (Lewis rats; 21 days before induction) was 3.1 ±0.3, the “clinical score, median” value (Lewis rats; 21 days before induction) was 3.0 and the “leukocytes … mean ± SEM (n=20)” value (Lewis rats; 21 days before induction) was 1029 ± 164 세포/μL. The “leukocytes in aqueous humor, median” value (Lewis rats; 21 days before induction) was 1023 세포/μL, the “reduction of clinical score” value (Lewis rats; 21 days before induction) was 23% and the “reduction of leukocyte infiltration” value (Lewis rats; 21 days before induction) was 68%. The “clinical score, mean ± SEM (n=20)” value (Lewis rats; 28 days before induction) was 3.3 ± 0.2, the “clinical score, median” value (Lewis rats; 28 days before induction) was 4.0 and the “leukocytes … mean ± SEM (n=20)” value (Lewis rats; 28 days before induction) was 1260 ± 263 세포/μL. The “leukocytes in aqueous humor, median” value (Lewis rats; 28 days before induction) was 915 세포/μL, the “reduction of clinical score” value (Lewis rats; 28 days before induction) was 18% and the “reduction of leukocyte infiltration” value (Lewis rats; 28 days before induction) was 61%. The “clinical score, median” value (Lewis rats; day of induction) was 3.0, the “leukocytes in aqueous humor, median” value (Lewis rats; day of induction) was 2005 세포/μL and the “reduction of clinical score” value (Lewis rats; day of induction) was 30%. For the same substance, the “reduction of leukocyte infiltration” value (Lewis rats; day of induction) was 31%, the “leukocytes … mean ± SEM (n=20)” value (Lewis rats; day of induction, vehicle 3236 ± 346) was 2226 ± 192 세포/μL and the “b-wave recovery (% of baseline)” value ([1]; 1.5 μg/eye IVT, day 9) was 55.3%. The “a-wave recovery (% of baseline)” value ([1]; 1.5 μg/eye IVT, day 16) was 47.5%, the “b-wave recovery (% of baseline)” value ([1]; 1.5 μg/eye IVT, day 16) was 61.7% and the “a-wave recovery (% of baseline)” value ([1]; 1.5 μg/eye IVT, day 23) was 48.3%. The “b-wave recovery (% of baseline)” value ([1]; 1.5 μg/eye IVT, day 23) was 73.5%, the “ONL thickness loss (% vs non-induced control eyes)” value ([1]; 1.5 μg/eye ivt) was 39% and the ONL thickness ([1]; 1.5 μg/eye ivt, day 23, p<0.05 vs vehicle) was 24.89 ± 4.01 μm. The “b-wave recovery (% of baseline)” value ([1]; 15 μg/eye IVT, day 9) was 60.6%, the “a-wave recovery (% of baseline)” value ([1]; 15 μg/eye IVT, day 16) was 51.1% and the “b-wave recovery (% of baseline)” value ([1]; 15 μg/eye IVT, day 16) was 62.3%. The “a-wave recovery (% of baseline)” value ([1]; 15 μg/eye IVT, day 23) was 41.8%, the “b-wave recovery (% of baseline)” value ([1]; 15 μg/eye IVT, day 23) was 56.5% and the “ONL thickness loss (% vs non-induced control eyes)” value ([1]; 15 μg/eye ivt) was 40%. For the same substance, the ONL thickness ([1]; 15 μg/eye ivt, day 23, p<0.05 vs vehicle) was 24.42 ± 5.99 μm, the “a-wave recovery (% of baseline)” value ([1]; 150 μg/eye IVT, day 9 (vehicle 5.7)) was 23.6% and the “b-wave recovery (% of baseline)” value ([1]; 150 μg/eye IVT, day 9 (vehicle 15)) was 31.9%. The “a-wave recovery (% of baseline)” value ([1]; 150 μg/eye IVT, day 16 (vehicle 13.2)) was 24.1%, the “b-wave recovery (% of baseline)” value ([1]; 150 μg/eye IVT, day 16 (vehicle 24.8)) was 38.9% and the “a-wave recovery (% of baseline)” value ([1]; 150 μg/eye IVT, day 23 (vehicle 22.5)) was 23.7%. The “b-wave recovery (% of baseline)” value ([1]; 150 μg/eye IVT, day 23 (vehicle 30.6)) was 37.1%, the “ONL thickness loss (% vs non-induced control eyes)” value ([1]; 150 μg/eye ivt) was 53% and the ONL thickness ([1]; 150 μg/eye ivt, day 23) was 18.95 ± 9.17 μm. For the same substance, the “accumulation in liver, especially Kupffer cells” value [2] was “명백한 축적”, the “decline of contrast threshold” value (Brown Norway rats; 200 μg/eye) was “현저하게 지연되었다” and the “ocular irritation (chemosis, hyperemia, discharge)” value (Brown Norway rats; 2, 20, 200 μg/eye every 2 weeks subconj.) was “안구 자극이 관찰되지 않았다”. The “retinal cytokine levels (all 23)” value (Brown Norway rats; 20 or 200 μg/eye) was “BLQ”, the “progression of visual acuity loss (spatial frequency threshold)” value (Brown Norway rats; 20 or 200 μg/eye, days 57-99) was “현저하게 지연시켰다” and the “contrast threshold vs vehicle” value (Brown Norway rats; all doses, day 99) was “현저하게 높은 대조 역치 값을 가졌으며”. The “visual acuity score vs vehicle-treated STZ group” value (Brown Norway rats; all doses, day 113 (significant at 2 and 200 μg/eye)) was “높은 시력 점수를 보였고”, the “tolerance (body weight)” value ([3]; 1 mg/kg/inj i.v.) was “내약성이 우수함” and the T/C ([3]; 1 mg/kg/inj i.v. [Q4Dx4]x2) was 120%. For the same substance, the “mean survival time (as headed)” value ([3]; 1 mg/kg/inj i.v. [Q4Dx4]x2, vehicle 102) was 123 일 and the “median survival time ± SD (as headed)” value ([3]; 1 mg/kg/inj i.v. [Q4Dx4]x2 from D10, D41, vehicle 102 ± 8) was 111 ± 14 days.
